# Patent US11274092B2, “Potassium channel inhibitors” (ACESION PHARMA ApS, priority 2016, dated 2022)
# Target: T1, human SK3 channel (hKCa2.3) (Homo sapiens, UniProt Q9UGI6)
# T1 construct: expressed in transfected cells
# Test: Automated whole cell patch-clamp (QPatch 16 HT), inhibition of SK3 current
# Type: cell-based
# Conditions: HEK-293 cells stably expressing hKCa2.3; symmetrical K+ solutions, free calcium 400 nM; effects normalized to N-methyl bicuculline
# Description: Automated whole cell patch-clamp recordings were performed using a QPatch 16 HT system and single-hole Qplates (Biolin Scientific, Sophion, Denmark) on HEK-293 cells stably expressing the human SK3 channel (hKCa2.3). Cells were cultured and prepared for experiments using normal cell culturing procedures. A total of 4-5 million cells were used per experiment. The Qpatch automatically generates giga sealing, whole-cell formation, compound application and recording of current. hKCa2.3 currents were recorded in symmetrical K^+ solutions, with an intracellular solution consisting of in mM: KCl 108; KOH/EGTA (ethylene glycol-bis(2-aminoethylether)-N,N,N′,N′-tetraacetic acid) 31.25/10; CaCl2) 8.1; MgCl2 1.2; HEPES (2-[4-(2-hydroxyethyl)piperazin-1-yl]ethanesulfonic acid) 10; KOH 15, pH adjusted to pH=7.2 with HCl. The free calcium concentration was calculated to 400 nM. The extracellular solution consisted of in mM: KCl 150; CaCl2) 0.1; MgCl2 3; HEPES 10; Glucose 10, pH=7.4 with KOH. The cells were held at 0 mV and hKCa2.3 currents were elicited by a linear voltage ramp from […] (200 ms in duration) applied every 5th second. The compound application protocol consisted of 12 recording periods lasting from 50-200 s: 1) Baseline recordings in extracellular solution; 2) Application of the positive control N-methyl bicuculline (100 μM), which is characterized by full efficacy, fast on- and off-rate; 3-4) Wash-out; 5-9) Increasing concentrations of test compound to establish an IC50 value; 10-11) Wash-out; 12) positive control with compound NS8593 (N-[(1R)-1,2,3,4-tetrahydro-1-naphthalenyl]-1H-benzimidazol-2-amine) (1 μM). Data were sampled at 10 kHz, 4th order Bessel filter, cut-off frequency 3 kHz. Currents were compensated for run-down. Potency was quantified as the concentration needed to inhibit half of the SK channel activity and reported as an IC50 value. All effects of compounds of the present invention as tested were normalized to the observed inhibitory effect of N-methyl bicuculline.
row,SMILES,IC50 [µM]
1,"N#CCNC(=O)CC(Nc1nc2ccccc2[nH]1)c1cccc(OC(F)(F)F)c1 (centres unmarked) [Example 85, 3-[(1H-1,3-benzodiazol-2-yl)amino]-N-(cyanomethyl)-3-[3-(trifluoromethoxy)phenyl]propanamide]",< 10
2,"O=C(CC(Nc1nc2ccccc2[nH]1)c1cccc(C(F)(F)F)c1)NCCOC(F)(F)F (single isomer, unassigned) [Example 67a, 3-[(1H-1,3-benzodiazol-2-yl)amino]-N-[2-(trifluoromethoxy)ethyl]-3-[3-(trifluoromethyl)phenyl]propanamide]",< 10
3,"COCCNC(=O)CC(Nc1nc2c(OC)cccc2[nH]1)c1cccc(C(F)(F)F)c1 (centres unmarked) [Example 93, 3-[(4-methoxy-1H-1,3-benzodiazol-2-yl)amino]-N-(2-methoxyethyl)-3-[3-(trifluoromethyl)phenyl]propanamide]",< 10
4,"CSCCNC(=O)CC(Nc1nc2ccccc2[nH]1)c1cccc(C(F)(F)F)c1 (centres unmarked) [Example 1, 3-[(1H-1,3-benzodiazol-2-yl)amino]-N-[2-(methylsulfanyl)ethyl]-3-[3-(trifluoromethyl)phenyl]propanamide]",< 10
5,"O=C(CC(Nc1nc2ccccc2[nH]1)c1cccc(C(F)(F)F)c1)NCc1cncnc1 (centres unmarked) [Example 78, 3-[(1H-1,3-benzodiazol-2-yl)amino]-N-(pyrimidin-5-ylmethyl)-3-[3-(trifluoromethyl)phenyl]propanamide]",< 10
6,"Cn1ccnc1CNC(=O)CC(Nc1nc2ccccc2[nH]1)c1cccc(C(F)(F)F)c1 (centres unmarked) [Example 19, 3-[(1H-1,3-benzodiazol-2-yl)amino]-N-[(1-methyl-1H-imidazol-2-yl)methyl]-3-[3-(trifluoromethyl)phenyl]propanamide]",10 to 100
7,"COC(=O)CN(C)C(=O)CC(Nc1nc2ccccc2[nH]1)c1cccc(C(F)(F)F)c1 (centres unmarked) [Example 57, Methyl 2-{3-[(1H-1,3-benzodiazol-2-yl)amino]-N-methyl-3-[3-(trifluoromethyl)phenyl]propanamido}acetate]",< 10
8,"CN(C)CCN(C)C(=O)C(Nc1nc2ccccc2[nH]1)c1cccc(C(F)(F)F)c1 (centres unmarked) [Example 25, 2-[(1H-1,3-benzodiazol-2-yl)amino]-N-[2-(dimethylamino)ethyl]-N-methyl-2-[3-(trifluoromethyl)phenyl]acetamide]",10 to 100
9,"CCN(CCO)C(=O)C(Nc1nc2ccccc2[nH]1)c1cccc(C(F)(F)F)c1 (centres unmarked) [Example 38, 2-[(1H-1,3-benzodiazol-2-yl)amino]-N-ethyl-N-(2-hydroxyethyl)-2-[3-(trifluoromethyl)phenyl]acetamide]",< 10
10,"COCCNC(=O)CC(Nc1nc2ccccc2[nH]1)c1cc(C)c(F)c(C)c1 (centres unmarked) [Example 80, 3-[(1H-1,3-benzodiazol-2-yl)amino]-3-(4-fluoro-3,5-dimethylphenyl)-N-(2-methoxyethyl)propanamide]",< 10
11,"CCN(CCO)C(=O)CC(Nc1nc2ccccc2[nH]1)c1cccc(C(F)(F)F)c1 (centres unmarked) [Example 41, 3-[(1H-1,3-benzodiazol-2-yl)amino]-N-ethyl-N-(2-hydroxy-ethyl)-3-[3-(trifluoromethyl)phenyl]propanamide]",< 10
12,"O=C(C(Nc1nc2ccccc2[nH]1)c1cccc(C(F)(F)F)c1)N1CCNCC1 (centres unmarked) [Example 26, 2-[(1H-1,3-benzodiazol-2-yl)amino]-1-(piperazin-1-yl)-2-[3-(trifluoromethyl)phenyl]ethan-1-one]",10 to 100
13,"COCCN(C)C(=O)CC(Nc1nc2ccccc2[nH]1)c1cccc(C(F)(F)F)c1 (centres unmarked) [Example 43, 3-[(1H-1,3-benzodiazol-2-yl)amino]-N-(2-methoxyethyl)-N-methyl-3-[3-(trifluoromethyl)phenyl]propanamide]",< 10
14,"CC(C)(O)CNC(=O)CC(Nc1nc2ccccc2[nH]1)c1cccc(C(F)(F)F)c1 (single isomer, unassigned; (-)) [Example 4a, (−) 3-[(1H-1,3-benzodiazol-2-yl)amino]-N-(2-hydroxy-2-methylpropyl)-3-[3-(trifluoromethyl)phenyl]propanamide]",10 to 100
15,"CN(CC#N)C(=O)CC(Nc1nc2c(CCO)cccc2[nH]1)c1cccc(C(F)(F)F)c1 (centres unmarked) [Example 51, N-(cyanomethyl)-3-{[4-(2-hydroxyethyl)-1H-1,3-benzodiazol-2-yl]amino}-N-methyl-3-[3-(trifluoromethyl)phenyl]propanamide]",10 to 100
16,"CN1CCN(C(=O)CC(Nc2nc3ccccc3[nH]2)c2cccc(C(F)(F)F)c2)CC1=O (centres unmarked) [Example 11, 4-{3-[(1H-1,3-benzodiazol-2-yl)amino]-3-[3-(trifluoromethyl)phenyl]propanoyl}-1-methylpiperazin-2-one]",10 to 100
17,"COCCNC(=O)CC(Nc1nc2ccccc2[nH]1)c1cccc(SC)c1 (centres unmarked) [Example 92, 3-[(1H-1,3-benzodiazol-2-yl)amino]-N-(2-methoxyethyl)-3-[3-(methylsulfanyl)phenyl]propanamide]",< 10
18,"CCN(CC(=O)OC)C(=O)CC(Nc1nc2ccccc2[nH]1)c1cccc(C(F)(F)F)c1 (centres unmarked) [Example 47, Methyl 2-{3-[(1H-1,3-benzodiazol-2-yl)amino]-N-ethyl-3-[3-(trifluoromethyl)phenyl]propanamido}acetate]",< 10
19,"O=C(CC(Nc1nc2ccccc2[nH]1)c1cccc(C(F)(F)F)c1)N1CCC(O)CC1 (centres unmarked) [Example 5, 3-[(1H-1,3-benzodiazol-2-yl)amino]-1-(4-hydroxypiperidin-1-yl)-3-[3-(trifluoromethyl)phenyl]propan-1-one]",10 to 100
20,"CCN(CC#N)C(=O)CC(Nc1nc2ccccc2[nH]1)c1cccc(C(F)(F)F)c1 (centres unmarked) [Example 55, 3-[(1H-1,3-benzodiazol-2-yl)amino]-N-(cyanomethyl)-N-ethyl-3-[3-(trifluoromethyl)phenyl]propanamide]",< 10
21,"O=C(NC1COC1)C(Nc1nc2ccccc2[nH]1)c1cccc(C(F)(F)F)c1 (centres unmarked) [Example 35, 2-[(1H-1,3-benzodiazol-2-yl)amino]-N-(oxetan-3-yl)-2-[3-(trifluoromethyl)phenyl]acetamide]",10 to 100
22,"O=C(C(Nc1nc2ccccc2[nH]1)c1cccc(C(F)(F)F)c1)N1CCC1 (centres unmarked) [Example 34, 1-(azetidin-1-yl)-2-[(1H-1,3-benzodiazol-2-yl)amino]-2-[3-(trifluoromethyl)phenyl]ethan-1-one]",< 10
23,"COC(=O)[C@@H](C)NC(=O)CC(Nc1nc2ccccc2[nH]1)c1cccc(C(F)(F)F)c1 (stereo partly drawn) [Example 46, Methyl (2R)-2-{3-[(1H-1,3-benzodiazol-2-yl)amino]-3-[3-(trifluoromethyl)phenyl]propanamido}propanoate]",< 10
24,"O=C(C(Nc1nc2ccccc2[nH]1)c1cccc(C(F)(F)F)c1)N1CC2(COC2)C1 (centres unmarked) [Example 36, 2-[(1H-1,3-benzodiazol-2-yl)amino]-1-{2-oxa-6-azaspiro[3.3]heptan-6-yl}-2-[3-(trifluoromethyl)phenyl]ethan-1-one]",10 to 100
25,"COCCNC(=O)CC(Nc1nc2ccccc2[nH]1)c1cccc(C(F)(F)F)c1 (centres unmarked) [Example 42, 3-[(1H-1,3-benzodiazol-2-yl)amino]-N-(2-methoxyethyl)-3-[3-(trifluoromethyl)phenyl]propanamide]",< 10
26,"O=C(CC(Nc1nc2ccccc2[nH]1)c1cccc(C(F)(F)F)c1)NCCNS(=O)(=O)Cc1ccccc1 (centres unmarked) [Example 12, 3-[(1H-1,3-benzodiazol-2-yl)amino]-N-[2-(phenylmethanesulfonamido)ethyl]-3-[3-(trifluoromethyl)phenyl]propanamide]",10 to 100
